# US20200038306A1, “[…] DERIVATIVES AS SELF-TANNING SUBSTANCES” (Merck Patent GmbH, priority 2016, published 2020)
# How the values were obtained:
# [1] = tested on: Normal Human Epidermal Keratinocytes (NHEK) and Normal Human Epidermal Melanocytes, Lightly Pigmented (NHEM-LP) co-culture; assay: Synthesis of melanin in NHEK/NHEM-LP co-culture; type: cell-based; conditions: 240 hours (10 days) incubation, melanin extracted with 0.5 N NaOH, OD 405 nm, triple determination
# Protocol: Evaluation of the Synthesis of Melanin in a Cell Culture Model Containing Two Cell Types (Co-Culture), Firstly Normal Human Epidermal Keratinocytes (NHEK) and Secondly Normal Human Epidermal Melanocytes, Lightly Pigmented (NHEM-LP)
# The two cell types NHEK and NHEM-LP (NHEK:NHEM-LP) are employed in a ratio of 2:1.
# The culture medium consists of the media keratinocyte-SFM (2 parts by volume) and medium M254 (1 part by volume).
# Keratinocyte-SFM contains 0.25 ng/ml of epidermal growth factor (EGF), 25 μg/ml of pituitary extract (PE) and 25 μg/ml of gentamycin and was purchased from Thermo Fisher Scientific.
# M254 contains PMA-free HMGS-2, 5 μg/ml of insulin, 50 U/ml of penicillin, 50 μg/ml of streptomycin and 25 μg/ml of gentamycin and was purchased from Thermo Fisher Scientific.
# IBMX denotes the compound 3-isobutyl-1-methylxanthine.
# Cell Culture and Treatment
# NHEK and NHEM-LP were incubated in the culture medium in microtitre plates (24-well plates) for 24 hours (37° C., 5% CO2). The culture medium was removed and replaced by an assay medium which contained the culture medium and compounds Ib and Id to be tested or alternatively no test substance, the reference L-tyrosine (1 mM), 200 μM of IBMX or the solvent control 0.1% of THF, 0.15% of THF, 0.1% of DMSO, 0.15% of DMSO, 0.17% of DMSO. Compound Ib was added as solution (0.15% in DMSO). Compound Id was added as solution (0.15% in THF). After replacement of the assay medium, the cells were incubated again for 240 hours (10 days). On days 3 and 7, assay medium was again added. All experimental investigations were carried out using a triple determination. After the end of the incubation, the melanin was extracted by cell lysis with 0.5 N NaOH. The optical density (OD) of each sample was measured at 405 nm. The melanin quantity was calculated from melanin standards (standard curve 0.39 to 100 μg/ml of melanin).
# [2] = tested on: 3D melanized reconstructed human epidermis (RHEs-MEL); assay: Tanning properties in vitro on reconstructed epidermis; type: cell-based; conditions: systemic treatment in culture medium for 10 days, positive control IBMX 100 μM
# Protocol: Evaluation of the Tanning Properties In Vitro on Reconstructed Epidermis
# In this study, the tanning properties of compound Id are investigated in vitro on 3D melanized reconstructed human epidermis (RHEs-MEL). The compound IBMX (3-isobutyl-1-methylxanthine) 100 μM is employed as positive control. Compound Id is employed 20 μM and […]. Untreated reconstructed skin is used as negative control. The in vitro skin is treated systemically with the compounds to be investigated in a culture medium for 10 days and then analysed.
SMILES,stimulation of melanin synthesis ([1]; 45 μM),stimulation of melanin synthesis ([1]; 20 μM),tanning properties (reduction of the ITA value and visual colour difference) compared with IBMX ([2]; 20 μM),tanning properties (reduction of the ITA value and visual colour difference) compared with IBMX [2]
"COc1ccc(CC2C(=O)NC(=O)NC2=O)cc1 [Compound Ib, 5-(4-methoxybenzyl)pyrimidine-2,4,6-trione]",20%,,,
"CCCCN1C(=O)NC(=O)C(Cc2ccccc2)C1=O (centres unmarked) [Compound Id, 5-benzyl-1-butylpyrimidine-2,4,6-trione]",25%,17%,comparably good properties as IBMX at 100 μM,comparably good properties as IBMX at 100 μM
